Experiments:
[1] = Half life in human plasma at 1 uM by HPLC-MS/MS analysis; type: ADME, cell-free
Human alphaherpesvirus 1 [2] = assay: Antiviral activity against Herpes simplex virus 1 KOS infected in HEL cells assessed as inhibition of virus-induced cytopathic effect measured after 2 to 3 days post-infection; type: functional, organism-based; settings: Human alphaherpesvirus 1, KOS
[3] = Cytotoxicity against HEL cells assessed as morphological changes after 3 days by microscopic analysis; type: cell-based; settings: human
Human alphaherpesvirus 1 [4] = assay: Antiviral activity against ACV-resistant thymidine kinase deficient Herpes simplex virus 1 KOS infected in HEL cells assessed as inhibition of virus-induced cytopathic effect measured after 2 to 3 days post-infection; type: functional, organism-based; settings: Human alphaherpesvirus 1, KOS
Human betaherpesvirus 5 [5] = assay: Antiviral activity against Human cytomegalovirus AD169 infected in HEL cells assessed as inhibition of virus-induced cytopathic effect measured after 6 to 7 days post-infection; type: functional, organism-based; settings: Human betaherpesvirus 5, AD169, HEL
Human alphaherpesvirus 3 [6] = assay: Antiviral activity against thymidine kinase deficient Varicella-Zoster virus 07-1 assessed as inhibition of plaque formation measured after 5 days post-infection; type: functional, organism-based; settings: Human alphaherpesvirus 3, 07-1, 120 h
Human alphaherpesvirus 3 [7] = assay: Antiviral activity against thymidine kinase expressing Varicella-Zoster virus Oka assessed as inhibition of plaque formation measured after 5 days post-infection; type: functional, organism-based; settings: Human alphaherpesvirus 3, strain Oka vaccine, 120 h
[8] = Cytotoxicity against HEL cells assessed as reduction in cell viability after 3 days by coulter counting method; type: cell-based; settings: human
Human alphaherpesvirus 2 = assay: Antiviral activity against Herpes simplex virus 2 G infected in HEL cells assessed as inhibition of virus-induced cytopathic effect measured after 2 to 3 days post-infection; type: functional, organism-based; settings: Human alphaherpesvirus 2, strain G
Human betaherpesvirus 5 [9] = assay: Antiviral activity against Human cytomegalovirus Davis infected in HEL cells assessed as inhibition of virus-induced cytopathic effect measured after 6 to 7 days post-infection; type: functional, organism-based; settings: Human betaherpesvirus 5, Davis
[10] = Half life in human liver microsomes at 0.1 uM in presence of NADPH-generating system by HPLC-MS/MS analysis; type: ADME, microsome
[11] = Selectivity index, ratio of CC50 for HEL cells to EC50 for Herpes simplex virus 2 G infected in HEL cells; type: toxicity, cell-based; settings: human, read-out: Ratio CC50/EC50
[12] = Selectivity index, ratio of CC50 for HEL cells to EC50 for Human cytomegalovirus AD169 infected in HEL cells; type: toxicity, cell-based; settings: read-out: Ratio CC50/EC50
[13] = Selectivity index, ratio of CC50 for HEL cells to EC50 for thymidine kinase deficient Varicella-Zoster virus 07-1 infected in HEL cells; type: toxicity, cell-based; settings: human, read-out: Ratio CC50/EC50
[14] = Selectivity index, ratio of CC50 for HEL cells to EC50 for Herpes simplex virus 1 KOS infected in HEL cells; type: toxicity, cell-based; settings: human, read-out: Ratio CC50/EC50
[15] = Selectivity index, ratio of CC50 for HEL cells to EC50 for Human cytomegalovirus Davis infected in HEL cells; type: toxicity, cell-based; settings: read-out: Ratio CC50/EC50
[16] = Selectivity index, ratio of CC50 for HEL cells to EC50 for thymidine kinase expressing Varicella-Zoster virus Oka infected in HEL cells; type: toxicity, cell-based; settings: human, read-out: Ratio CC50/EC50
[17] = Selectivity index, ratio of CC50 for HEL cells to EC50 for ACV-resistant thymidine kinase deficient Herpes simplex virus 1 KOS infected in HEL cells; type: toxicity, cell-based; settings: human, read-out: Ratio CC50/EC50

CCCCCOC(=O)[C@H](CC(C)C)NP1(=O)CO[C@@H](Cn2cnc3c(N)ncnc32)CO1 (stereo partly drawn)
half-life at 1 µM [1]: 84 min | EC50 (Human alphaherpesvirus 1 [2]): 1.3 nM | MCC at 72 h [3]: 4.27 µM | EC50 (Human alphaherpesvirus 1 [4]): 1.3 nM | EC50 (Human betaherpesvirus 5 [5]): 5.7 nM | EC50 (Human alphaherpesvirus 3 [6]): 0.59 nM | EC50 (Human alphaherpesvirus 3 [7]): 0.47 nM | CC50 at 72 h [8]: 1620 nM | EC50 (Human alphaherpesvirus 2): 1.9 nM | EC50 (Human betaherpesvirus 5 [9]): 3.8 nM | half-life at 0.1 µM [10]: 16 min

CCCCCOC(=O)[C@H](C)NP1(=O)CO[C@@H](Cn2cnc3c(N)ncnc32)CO1 (stereo partly drawn)
EC50 (Human alphaherpesvirus 1 [2]): 20 nM | MCC at 72 h [3]: 23.5 µM | EC50 (Human alphaherpesvirus 1 [4]): 10 nM | EC50 (Human betaherpesvirus 5 [5]): 64 nM | EC50 (Human alphaherpesvirus 3 [6]): 4.3 nM | EC50 (Human alphaherpesvirus 3 [7]): 2 nM | CC50 at 72 h [8]: 3400 nM | EC50 (Human alphaherpesvirus 2): 17 nM | EC50 (Human betaherpesvirus 5 [9]): 65 nM

CCCCCOC(=O)[C@@H](NP1(=O)CO[C@@H](Cn2cnc3c(N)ncnc32)CO1)C(C)C (stereo partly drawn)
EC50 (Human alphaherpesvirus 1 [2]): 3 nM | MCC at 72 h [3]: 4.4 µM | EC50 (Human alphaherpesvirus 1 [4]): 1.8 nM | EC50 (Human betaherpesvirus 5 [5]): 5.9 nM | EC50 (Human alphaherpesvirus 3 [6]): 1.5 nM | EC50 (Human alphaherpesvirus 3 [7]): 0.57 nM | CC50 at 72 h [8]: 7760 nM | EC50 (Human alphaherpesvirus 2): 4.2 nM | EC50 (Human betaherpesvirus 5 [9]): 4.8 nM

CCCCCOC(=O)[C@@H](NP1(=O)CO[C@@H](Cn2cnc3c(N)ncnc32)CO1)[C@@H](C)CC (stereo partly drawn)
selectivity ratio [11]: > 4400 | selectivity ratio [12]: 1800 | selectivity ratio [13]: 20000 | EC50 (Human alphaherpesvirus 1 [2]): 2 nM | MCC at 72 h [3]: 9.96 µM | selectivity ratio [14]: > 4400 | EC50 (Human alphaherpesvirus 1 [4]): 1.9 nM | selectivity ratio [15]: 1800 | EC50 (Human betaherpesvirus 5 [5]): 7 nM | EC50 (Human alphaherpesvirus 3 [6]): 0.54 nM | EC50 (Human alphaherpesvirus 3 [7]): 0.45 nM | selectivity ratio [16]: 20000 | CC50 at 72 h [8]: 12000 nM | selectivity ratio [17]: > 4400 | EC50 (Human alphaherpesvirus 2): 2.7 nM | EC50 (Human betaherpesvirus 5 [9]): 6.5 nM

CCCCCOC(=O)[C@H](CCSC)NP1(=O)CO[C@@H](Cn2cnc3c(N)ncnc32)CO1 (stereo partly drawn)
EC50 (Human alphaherpesvirus 1 [2]): 8.9 nM | MCC at 72 h [3]: 4.11 µM | EC50 (Human alphaherpesvirus 1 [4]): 5.7 nM | EC50 (Human betaherpesvirus 5 [5]): 32 nM | EC50 (Human alphaherpesvirus 3 [6]): 4 nM | EC50 (Human alphaherpesvirus 3 [7]): 2.6 nM | CC50 at 72 h [8]: 39600 nM | EC50 (Human alphaherpesvirus 2): 11 nM | EC50 (Human betaherpesvirus 5 [9]): 29 nM

CCCCCOC(=O)[C@H](Cc1ccccc1)NP1(=O)CO[C@@H](Cn2cnc3c(N)ncnc32)CO1 (stereo partly drawn)
selectivity ratio [11]: > 4400 | EC50 (Human alphaherpesvirus 1 [2]): 3.5 nM | MCC at 72 h [3]: 9.29 µM | selectivity ratio [14]: > 4400 | EC50 (Human alphaherpesvirus 1 [4]): 1.5 nM | EC50 (Human betaherpesvirus 5 [5]): 31 nM | EC50 (Human alphaherpesvirus 3 [6]): 3.2 nM | EC50 (Human alphaherpesvirus 3 [7]): 0.52 nM | CC50 at 72 h [8]: 30600 nM | selectivity ratio [17]: > 4400 | EC50 (Human alphaherpesvirus 2): 2.3 nM | EC50 (Human betaherpesvirus 5 [9]): 17 nM

CCCCCOC(=O)[C@@H](NP(=O)(CO[C@H](CO)Cn1cnc2c(N)ncnc21)N[C@H](C(=O)OCCCCC)C(C)C)C(C)C
half-life at 1 µM [1]: > 120 min | EC50 (Human alphaherpesvirus 1 [2]): 2.3 nM | MCC at 72 h [3]: 8.57 µM | EC50 (Human alphaherpesvirus 1 [4]): 0.9 nM | EC50 (Human betaherpesvirus 5 [5]): 100 nM | EC50 (Human alphaherpesvirus 3 [6]): 0.95 nM | EC50 (Human alphaherpesvirus 3 [7]): 1.5 nM | CC50 at 72 h [8]: 600 nM | EC50 (Human alphaherpesvirus 2): 2.8 nM | EC50 (Human betaherpesvirus 5 [9]): 72 nM | half-life at 0.1 µM [10]: 4 min

CCCCCOC(=O)C[C@H](NP1(=O)CO[C@@H](Cn2cnc3c(N)ncnc32)CO1)C(=O)OCCCCC (stereo partly drawn)
half-life at 1 µM [1]: 22 min | EC50 (Human alphaherpesvirus 1 [2]): 3.2 nM | MCC at 72 h [3]: 13.6 µM | EC50 (Human alphaherpesvirus 1 [4]): 7.3 nM | EC50 (Human betaherpesvirus 5 [5]): 27 nM | EC50 (Human alphaherpesvirus 3 [6]): 1.5 nM | EC50 (Human alphaherpesvirus 3 [7]): 1.4 nM | CC50 at 72 h [8]: 2730 nM | EC50 (Human alphaherpesvirus 2): 2 nM | EC50 (Human betaherpesvirus 5 [9]): 9 nM | half-life at 0.1 µM [10]: 4 min

CCCCCOC(=O)CC[C@H](NP1(=O)CO[C@@H](Cn2cnc3c(N)ncnc32)CO1)C(=O)OCCCCC (stereo partly drawn)
EC50 (Human alphaherpesvirus 1 [2]): 1.2 nM | MCC at 72 h [3]: 13.2 µM | EC50 (Human alphaherpesvirus 1 [4]): 1.2 nM | EC50 (Human betaherpesvirus 5 [5]): 14 nM | EC50 (Human alphaherpesvirus 3 [6]): 0.95 nM | EC50 (Human alphaherpesvirus 3 [7]): 0.58 nM | CC50 at 72 h [8]: 520 nM | EC50 (Human alphaherpesvirus 2): 2.5 nM | EC50 (Human betaherpesvirus 5 [9]): 7.6 nM

CCCCCOC(=O)CC(NP1(=O)COC(Cn2cnc3c(N)ncnc32)CO1)C(=O)OCCCCC (single isomer, unassigned)
EC50 (Human alphaherpesvirus 1 [2]): 210 nM | MCC at 72 h [3]: > 18.5 µM | EC50 (Human alphaherpesvirus 1 [4]): 76 nM | EC50 (Human betaherpesvirus 5 [5]): 4390 nM | EC50 (Human alphaherpesvirus 3 [6]): 62 nM | EC50 (Human alphaherpesvirus 3 [7]): 33 nM | CC50 at 72 h [8]: 11600 nM | EC50 (Human alphaherpesvirus 2): 110 nM | EC50 (Human betaherpesvirus 5 [9]): 1620 nM

Nc1nc2c(ncn2COCCO)c(=O)[nH]1 [ACYCLOVIR]
MCC at 72 h [3]: > 88.8 µM

O=c1[nH]c(=O)n([C@H]2C[C@H](O)[C@@H](CO)O2)cc1/C=C/Br [BRIVUDINE]
MCC at 72 h [3]: > 30 µM | EC50 (Human alphaherpesvirus 1 [4]): > 30000 nM | EC50 (Human alphaherpesvirus 3 [6]): 22100 nM | EC50 (Human alphaherpesvirus 3 [7]): 53 nM | CC50 at 72 h [8]: > 300000 nM | EC50 (Human alphaherpesvirus 2): > 30000 nM

Nc1ccn(C[C@@H](CO)OCP(=O)(O)O)c(=O)n1 [CIDOFOVIR]
EC50 (Human alphaherpesvirus 1 [2]): 4180 nM | MCC at 72 h [3]: > 71.6 µM | EC50 (Human alphaherpesvirus 1 [4]): 1950 nM | CC50 at 72 h [8]: > 358000 nM | EC50 (Human alphaherpesvirus 2): 2730 nM

Nc1nc2c(ncn2COC(CO)CO)c(=O)[nH]1 [GANCICLOVIR]
MCC at 72 h [3]: > 39.2 µM | EC50 (Human alphaherpesvirus 1 [4]): > 29500 nM | EC50 (Human betaherpesvirus 5 [5]): 7410 nM | CC50 at 72 h [8]: > 319000 nM | EC50 (Human alphaherpesvirus 2): 51 nM

Nc1nc2c(ncn2CCC(CO)CO)c(=O)[nH]1 [PENCICLOVIR]
EC50 (Human alphaherpesvirus 1 [2]): 480 nM | MCC at 72 h [3]: > 79 µM | EC50 (Human alphaherpesvirus 1 [4]): > 79000 nM | CC50 at 72 h [8]: > 395000 nM | EC50 (Human alphaherpesvirus 2): 840 nM
